Results: patent US9770421B2, “Uses for idebenone and related benzoquinones in metabolic disorders and other PPAR α/γ related diseases and conditions” (INDANIO BIOSCIENCE INC., priority 2013, dated 2017)
“Also recorded” adds a separate entry of the source.

Tests used:
[1] = target: T1, PPARδ/β (Homo sapiens, UniProt Q03181); assay: PPARδ/β ligand trap transgenic zebrafish line; conditions: in vivo
T1 construct: expressed in transfected cells; host or cells: transgenic zebrafish embryos (ligand-trap line)
T1 sequence (Q03181 211-439 limits assumed): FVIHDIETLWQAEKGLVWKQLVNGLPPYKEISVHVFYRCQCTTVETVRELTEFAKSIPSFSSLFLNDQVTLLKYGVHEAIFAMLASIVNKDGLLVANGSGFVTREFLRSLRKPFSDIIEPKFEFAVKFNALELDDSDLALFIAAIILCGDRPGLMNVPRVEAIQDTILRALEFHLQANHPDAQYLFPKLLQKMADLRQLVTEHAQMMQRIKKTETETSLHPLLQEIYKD
Description: To test for specificity, idebenone and CoQ10 were also tested on PPARα, and PPARδ/β receptors in vivo and in vitro. […] The same relative responses were obtained with HEK 293 cells grown in culture and transfected with PPAR expression vectors and luciferase reporters (FIG. 5).

[2] = target: T2, human PPARγ LBD (residues 206-477) (Homo sapiens, UniProt P37231); assay: Stargazer thermostabilization assay; format: binding; conditions: 0.2 mg/ml PPARγ LBD, heated to 80° C.
T2 construct: human PPARγ LBD (residues 206-477), expressed in pRSET; His tag (implied by Ni-NTA purification and the pRSET vector); made in house; host or cells: E. coli BL21 codon plus (pRSET)
T2 sequence (P37231 206-477 isoform P37231-2): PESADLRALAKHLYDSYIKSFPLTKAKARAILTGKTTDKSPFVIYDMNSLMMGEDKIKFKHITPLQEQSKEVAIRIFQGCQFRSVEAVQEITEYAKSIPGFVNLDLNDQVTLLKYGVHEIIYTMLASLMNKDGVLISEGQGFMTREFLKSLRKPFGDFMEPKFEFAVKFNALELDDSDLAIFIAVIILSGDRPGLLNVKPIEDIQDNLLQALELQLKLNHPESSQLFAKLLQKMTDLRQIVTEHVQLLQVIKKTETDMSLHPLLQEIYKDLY

[3] = target: T3, PPARα LBD (Homo sapiens, UniProt Q07869); assay: In vitro co-purification with His-tagged PPARα LBD, MS; format: binding; conditions: incubated with 10 μM idebenone
T3 construct: His-tagged PPARα, δ and γ LBDs were expressed in bacteria, Ni-NTA purified; His; made in house; host or cells: bacteria (E. coli)
T3 sequence (Q07869 239-466 limits assumed): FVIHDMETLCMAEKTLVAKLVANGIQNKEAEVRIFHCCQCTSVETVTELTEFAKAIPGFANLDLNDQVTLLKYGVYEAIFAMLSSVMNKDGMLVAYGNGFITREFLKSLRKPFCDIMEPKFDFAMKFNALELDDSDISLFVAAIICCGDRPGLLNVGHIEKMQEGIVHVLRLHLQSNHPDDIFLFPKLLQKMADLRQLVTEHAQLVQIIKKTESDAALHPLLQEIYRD
Description: (§1) To see if idebenone can bind to directly to other PPAR LBDs, His-tagged PPARα, δ and γ LBDs were expressed in bacteria, Ni-NTA purified and incubated with 10 μM idebenone. After several washes in a 10 kDa cut off Amicon centrifuge filter (Millipore), lipids were extracted and analyzed by MS.

[4] = target: T4, PPARγ LBD (Homo sapiens, UniProt P37231); assay: In vitro co-purification with His-tagged PPARγ LBD, MS; format: binding; conditions: incubated with 10 μM idebenone
T4 construct: His-tagged PPARα, δ and γ LBDs were expressed in bacteria, Ni-NTA purified; His; made in house; host or cells: bacteria (E. coli)
T4 sequence (P37231 238-503 limits assumed): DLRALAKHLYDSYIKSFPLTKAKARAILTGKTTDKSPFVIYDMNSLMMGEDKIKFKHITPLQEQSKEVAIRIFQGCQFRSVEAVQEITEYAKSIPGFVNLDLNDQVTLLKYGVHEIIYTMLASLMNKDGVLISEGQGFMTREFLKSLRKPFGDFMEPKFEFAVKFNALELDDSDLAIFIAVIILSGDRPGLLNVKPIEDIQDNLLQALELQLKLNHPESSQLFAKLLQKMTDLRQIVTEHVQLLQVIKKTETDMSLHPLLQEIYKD
Description: as §1

[5] = target: T5, PPARα (Homo sapiens, UniProt Q07869); assay: PPARα ligand trap zebrafish GFP reporter assay; format: in vivo; parameters: pLT PPARα (aa 178-468) and pLT PPAR γ (aa 188-477) lines; expressed in transfected cells; host or cells: transgenic zebrafish embryos (ligand-trap line); conditions: transgenic embryos, 48 hpf
T5 sequence (Q07869 178-468): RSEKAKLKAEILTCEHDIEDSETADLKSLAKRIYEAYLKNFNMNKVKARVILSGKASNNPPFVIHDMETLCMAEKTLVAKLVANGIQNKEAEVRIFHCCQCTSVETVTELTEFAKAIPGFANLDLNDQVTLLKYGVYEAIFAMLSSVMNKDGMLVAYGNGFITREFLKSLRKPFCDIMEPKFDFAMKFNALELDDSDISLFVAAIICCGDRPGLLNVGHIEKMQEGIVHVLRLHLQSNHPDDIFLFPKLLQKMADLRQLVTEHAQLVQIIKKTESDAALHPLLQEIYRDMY
Description: Zebrafish were maintained at 28.5° C. on a 14/10 hour light/dark cycle and staged according to hours (h) or days (d) postfertilization. To generate pLT PPARα (aa 178-468) and pLT PPAR γ (aa 188-477) lines, plasmids were pre-digested with I-SceI (0.8 μg DNA, 1 μl I-SceI (New England Biolabs) 2 μl 10×I-SceI buffer, 1 μl BSA) for 20 min at 37° C. Digested DNA was adjusted with 0.1% phenol red. 4.6 nl of DNA solution was injected into the blastomeres of early one-cell stage embryos.
F0 fish were crossed with WT fish to identify germ-line transformed animals, as determined by agonist treatments and GFP expression. F1 progeny showing strong and consistent GFP responses were selected for F2 homozygote production. To avoid reporter GFP silencing of stable transgenic LT lines, homozygous fish showing strong and consistent GFP responses were selected for continued propagation of next generations.
PPARγ ligand trap zebrafish screens were performed under optimized conditions in 96-well format using the ImageXpress Velos Laser Scanning Cytometer. 1 or 2 dpf embryos were heat induced (28→37° C.) for 30 minutes, de-chorionated and then arrayed in 96-well plates (5 per well). […] Embryos were incubated at 28° C. for 14 h, anesthetized with Tricaine (Sigma, Cat. # A-5040) and then analyzed for GFP fluorescence using the ImageXpress Velos Laser Scanning Cytometer.

## COC1=C(OC)C(=O)C(CCCCCCCCCCO)=C(C)C1=O [Idebenone, 2-(10-hydroxydecyl)-5,6-dimethoxy-3-methyl-2,5-cyclohexadiene-1,4-dione]
[1]
  Response of PPARδ/β transgenic line: no response
[2]
  Shift of thermal denaturation transition temperature: 5.5 °C
[3]
  Binding to PPARα LBD (co-purification, MS): strong binding
[4]
  Binding to PPARγ LBD (co-purification, MS): strong binding
[5]
  GFP response of PPARα LT line: robust response; also recorded: dual agonists for PPARα and PPARγ
